Test results from patent US20230090293A1, “ANTIBIOTICS” (ASTON UNIVERSITY, priority 2020, published 2023).

How the values were obtained:
[1] = system: A2780cisR (cisplatin resistant ovarian cancer cell line); assay: In vitro chemosensitivity (MTT) assay, A2780cisR; type: cell-based, human; settings: 24 h exposure, 72 h recovery, mean ± SD
Description: (§1) In vitro chemosensitivity tests were performed against HCT116 (colorectal cancer cell line), A2780 and A2780cisR (cisplatin sensitive and cisplatin resistant ovarian cancer cell lines, respectively). Cancer cell lines were routinely maintained as monolayer cultures in RPMI medium supplemented with 10% foetal calf serum, penicillin (100 I.U./ml) and streptomycin (100 μg/ml), sodium pyruvate (1 mM) and L-glutamine (2 mM). For chemosensitivity studies, cells were incubated in 96-well plates at a concentration of 7.5×10^3 cells per well and the plates were incubated for 24 hours at 37° C. and a 5% CO2 humidified atmosphere prior to drug exposure.
(§2) Complexes were dissolved in dimethylsulfoxide (DMSO) to provide stock solutions which were further diluted with media to provide a range of final concentrations. Drug-media solutions were added to cells (the final concentration of DMSO was less than 0.5% (v/v) in all cases) and incubated for 24 hours at 37° C. and 5% CO2 humidified atmosphere. […] A Thermo Scientific Multiskan EX microplate photometer was used to measure the absorbance in each well at 570 nm. Cell survival was determined as the absorbance of treated cells divided by the absorbance of controls and expressed as a percentage. The IC50 values were determined from plots of % survival against drug concentration. […]

[2] = system: HCT116 (colorectal cancer cell line); assay: In vitro chemosensitivity (MTT) assay, HCT116; type: cell-based, human; settings: 24 h exposure, 72 h recovery, mean ± SD
Description: as §1, §2

`N.N.[Cl][Pt][Cl]` [cisplatin] was tested. Which IC50 [1] did it give?
The IC50 was 11.9 ± 2.2 µM.

And the IC50 [2]?
The IC50 was 59.8 ± 7.5 µM.
